Measured values from paper PMC5104769, “Concentration-Dependent Dual Mode of Zn Action at Serotonin 5-HT1A Receptors: In Vitro and In Vivo Studies” (Molecular neurobiology, 2015).

What was measured:
[1] = parameters: method as in PMID 20617034; conditions: cited from earlier work
[2] = molecular target: T1, human 5-HT1AR stably expressed in HEK293 cells (Homo sapiens, UniProt P08908); experiment: Saturation binding of [3H]-8-OH-DPAT in the absence and presence of Zn; conditions: Zn vs [3H]-8-OH-DPAT, nonlinear regression of saturation data, equation 1
T1 construct: The full-length human 5HTR1A complementary DNA (cDNA); membranes prepared from the cells
T1 sequence (P08908 1-422): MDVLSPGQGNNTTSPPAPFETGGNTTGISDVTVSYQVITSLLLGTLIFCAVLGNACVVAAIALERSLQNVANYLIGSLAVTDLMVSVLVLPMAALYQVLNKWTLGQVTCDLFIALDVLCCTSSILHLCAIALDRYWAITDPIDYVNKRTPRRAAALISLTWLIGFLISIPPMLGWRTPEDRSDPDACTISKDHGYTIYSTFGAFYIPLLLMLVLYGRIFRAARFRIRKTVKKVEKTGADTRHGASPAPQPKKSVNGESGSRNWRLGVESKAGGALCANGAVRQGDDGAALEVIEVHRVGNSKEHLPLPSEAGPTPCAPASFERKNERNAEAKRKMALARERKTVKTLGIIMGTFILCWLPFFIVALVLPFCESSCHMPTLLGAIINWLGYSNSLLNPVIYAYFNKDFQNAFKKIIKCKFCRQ
Description: (§1) The full-length human 5HTR1A complementary DNA (cDNA), which was cloned into the mammalian expression vector pcDNA3.1(+), was obtained from the Missouri S&T cDNA Resource Center (www.cdna.org). The receptor cDNA was stably transfected into human embryonic kidney cells (HEK293, ATCC) with the use of Lipofectamine 2000 (Invitrogen).
(§2) Cell pellets were thawed and homogenized in 20 volumes of 50 mM Tris–HCl buffer (pH 7.7) containing 0.1 mM EDTA and 10 mM MgCl2, using an Ultra Turrax tissue homogenizer. The pellets were then centrifuged twice at 35,000g for 20 min at 4 °C, with incubation for 15 min at 37 °C in between centrifugations. Membranes were aliquoted in tubes. Membrane protein concentrations were determined using the Pierce™ Coomassie (Bradford) Protein Assay Kit, with bovine serum albumin (BSA) as a standard.
(§3) The incubation buffer consisted of 50 mM Tris–HCl (pH 7.7), 10 mM MgCl2, 10 mM pargyline and 0.1 % ascorbic acid. Radioligand binding assays were performed by incubating 30 μg of protein of the membrane suspension in 96-well microtitre plates for 60 min at room temperature with shaking, in a total volume of 200 μl. The binding reactions were stopped by filtration through GF/C Unifilter plates using a harvester (PerkinElmer). The plate filters were dried, and 20 μl of Ultima Gold MV (PerkinElmer) was added. Radioactivity was measured using a MicroBeta TriLux counter (PerkinElmer).
All experiments were performed in triplicate, and the results were obtained from at least three independent experiments. The data are expressed as the mean±S.D. (standard deviation). The experimental data were analysed using GraphPad Prism 5.1 for Windows (GraphPad Software, San Diego California USA, www.graphpad.com).

[3] = tested on: 5-HT1A autoreceptor KO mice; experiment: Forced swim test (FST) in wild-type and 5-HT1A autoreceptor KO mice; type: in vivo, mouse; conditions: Zn 5 mg/kg 30 min before FST
From the text: A conditional knockout approach was used to eliminate the 5-HT1AR in the raphe nuclei in adult mice. To create the conditional 5-HT1AR knockout mice, a TPH2-Cre-ER^T2 mouse line was crossed with a flx-5-HT1A-YFP mouse line. The TPH2-Cre-ER^T2 confers specificity such that only serotonin neurons, which express tryptophan hydroxylase 2 (TPH2), can express Cre recombinase to knockout the 5-HT1AR gene and allow for […] expression. Once the mice reached adulthood (approximately 5–6 postnatal weeks), tamoxifen (180 mg/kg) was injected i.p. every day for five consecutive days (the tamoxifen binds to the ER^T2 domain and enables Cre to enter the nucleus where it can excise the 5-HT1AR gene, allowing for YFP expression as a marker of recombination). The mice were then left undisturbed for at least 14 days to allow for recombination and the turnover of endogenous 5-HT1ARs.
The behaviour of the mice in the water was recorded using a video camera. The test was performed under red lighting. The cylinder was filled with almost 4 l of water, to a depth that exceeded the distance to which the tail could extend, so the mouse could not balance on its tail at the bottom of the cylinder. […] The mice were placed in the individual glass cylinder (22 cm diameter×37 cm high) for a standard 6-min test; however, the total duration of immobility from the last 4 min of the test was analysed. […]

[4] = molecular target: T1, human 5-HT1AR stably expressed in HEK293 cells; experiment: Competition and competition-like (Zn titration) binding against 2.5 nM [3H]-8-OH-DPAT; conditions: 2.5 nM radioligand
Description: as §1, §2
as §3, with “The plate filters were dried, and 20 μl of Ultima Gold MV (PerkinElmer) was added.” left out

β2 adrenergic receptors = tested on: β2 adrenergic receptors; parameters: method as in PMID 11752207; conditions: cited from earlier work
Body temperature in rats = type: in vivo, rat; conditions: Zn: 30 min at 7.5 and 11.5 mg/kg, 60 min at 5, 7.5 and 11.5 mg/kg
Description: The experiments were performed on male Albino Swiss mice (23–25 g) and Sprague Dawley rats (200–250 g) from Charles River, Germany as well as TPH2-Cre-ER^T2 x flx-5-HT1A-flx-YFP mice from Jackson Labs, Bangor ME and the Hen lab, respectively. The animals were kept under standard laboratory conditions with respect to lighting (light phase 7:00–19:00) and temperature (19–21 °C). Food and water were freely available. Each experimental group consisted of eight to ten animals. All of the animals were experimentally naive and were used only once in each test. The experiments were performed during the light period (9:00–14:00 h). All of the procedures were conducted according to the guidelines of the National Institutes of Health Animal Care and Use Committee and were approved by the Ethics Committees of the Institute of Pharmacology, Polish Academy of Sciences in Krakow and the Animal Care Committee, University of Ottawa. […]
The effects of Zn (2, 5, 7.5 and 11.5 mg Zn/kg for rats and 2 and 5 mg/kg for mice, given as a Zn hydroaspartate), 8-OH-DPAT (5 mg/kg) and WAY-100635 (0.1mg/kg) on rectal body temperature were recorded 30 and 60 min after their acute administration. The results were expressed as a change in body temperature with respect to the basal body temperature, which was measured at the beginning of the experiments.

- cooperativity factor α [2]: 0.37
- increase of [3H]-8-OH-DPAT specific binding ([4]; 10 μM of Zn, bell-shaped titration curve): ~ 25%
- effect on [3H]-8-OH-DPAT specific binding ([4]; Zn at >100 μM): inhibition
SMILES: [Zn+2] [Zn, Zinc]
- extracellular Zn level reported as neurotoxic [1]: over 300 μM
- decrease in the immobility time ([3]; 5-HT1A autoreceptor KO mice, vs VEH-treated KO mice): 30%
- immobility time in the FST ([3]; wild-type mice): significant decrease in immobility time
- effect on agonist affinity (β2 adrenergic receptors; 5 μM of Zn): enhanced agonist affinity
- effect on antagonist binding (β2 adrenergic receptors; 500 μM of Zn): inhibited antagonist binding
- change in body temperature (Body temperature in rats): significantly decreased the body temperature
